Reference: patent publication US20260364080A1, “PYRAZOLO-PYRIMIDINONE COMPOUNDS FOR USE IN METHODS OF INHIBITING WEE1 A KINASE” (Acrivon Therapeutics, Inc., priority 2023, published 2026)
Where two headings read alike, the source gives them in different places.

Assays:
[1] = target: T1, recombinant human Wee1A kinase (Homo sapiens, UniProt P30291); experiment: Wee1A kinase binding assay (LanthaScreen Eu time-resolved FRET)
T1 construct: full length Wee1 kinase was expressed by baculovirus in insect cells; purchased Invitrogen PV3817; host or cells: insect cells (baculovirus)
T1 sequence (P30291 whole entry): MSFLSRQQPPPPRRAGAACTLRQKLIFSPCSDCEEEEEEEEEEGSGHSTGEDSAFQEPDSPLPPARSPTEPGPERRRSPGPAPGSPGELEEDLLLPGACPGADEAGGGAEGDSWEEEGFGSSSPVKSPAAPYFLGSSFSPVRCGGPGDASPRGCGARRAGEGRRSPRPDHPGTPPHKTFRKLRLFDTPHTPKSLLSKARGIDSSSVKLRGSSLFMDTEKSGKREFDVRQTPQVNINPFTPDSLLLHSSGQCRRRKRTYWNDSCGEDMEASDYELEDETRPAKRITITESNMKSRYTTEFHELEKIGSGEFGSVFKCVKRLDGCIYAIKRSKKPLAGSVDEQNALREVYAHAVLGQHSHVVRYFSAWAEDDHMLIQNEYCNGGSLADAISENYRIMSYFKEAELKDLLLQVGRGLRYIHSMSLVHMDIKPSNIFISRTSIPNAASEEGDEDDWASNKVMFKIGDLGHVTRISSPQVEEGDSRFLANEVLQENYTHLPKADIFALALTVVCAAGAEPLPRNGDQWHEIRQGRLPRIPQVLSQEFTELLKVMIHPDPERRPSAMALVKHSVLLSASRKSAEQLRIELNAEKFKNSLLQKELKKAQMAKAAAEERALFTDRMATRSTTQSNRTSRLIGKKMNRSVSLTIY
Procedure, shortened: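 Full-length, baculovirus-expressed GST-tagged Wee1A (5 nM) was mixed with 2 nM Eu-anti-GST antibody, 30 nM kinase tracer 178 and compound (1% DMSO). Buffer was 50 mM HEPES pH 7.5, 10 mM MgCl2, 1 mM EGTA, 0.01% Brij-35, incubated 60 min at room temperature. TR-FRET 665/615 nm emission ratios from duplicates were curve-fitted.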

[2] = target: T2, Myt1 kinase (recombinant PMYT-1) (Homo sapiens, UniProt Q99640); experiment: Myt1 kinase binding assay (LanthaScreen Eu Kinase Binding Assay)
T2 construct: full length PMYT-1 was expressed by baculovirus in insect cells; purchased Invitrogen A30984; host or cells: insect cells (baculovirus)
T2 sequence (Q99640 1-499): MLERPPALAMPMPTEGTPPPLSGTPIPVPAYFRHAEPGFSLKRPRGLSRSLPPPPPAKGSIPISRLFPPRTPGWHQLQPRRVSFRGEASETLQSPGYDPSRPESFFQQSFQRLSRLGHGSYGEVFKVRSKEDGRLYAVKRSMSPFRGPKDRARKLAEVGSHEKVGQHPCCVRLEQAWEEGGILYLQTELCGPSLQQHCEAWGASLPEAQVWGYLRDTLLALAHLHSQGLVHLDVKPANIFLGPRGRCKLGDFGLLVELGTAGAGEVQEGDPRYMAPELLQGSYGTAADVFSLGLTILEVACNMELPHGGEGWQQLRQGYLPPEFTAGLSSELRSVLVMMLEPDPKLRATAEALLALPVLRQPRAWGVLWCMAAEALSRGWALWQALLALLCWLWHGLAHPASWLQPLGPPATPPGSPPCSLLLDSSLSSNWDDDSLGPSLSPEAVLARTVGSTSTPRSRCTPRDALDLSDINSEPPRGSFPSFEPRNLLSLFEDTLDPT
Procedure, shortened: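 The binding affinity of compounds for Myt1 kinase was measured with a LanthaScreen Europium (Eu) Kinase Binding Assay, a time-resolved FRET format in which test compounds compete against a labeled kinase tracer, and the results were expressed as IC50 values describing compound binding to Myt1.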

[3] = target: T3, Myt1 kinase (CDK1 Thr14 phosphorylation in DAOY medulloblastoma cells) (Homo sapiens, UniProt Q99640); experiment: AlphaLISA assay, Myt1 kinase target engagement (phospho-CDK1 Thr14) in DAOY cells; type: cell-based; conditions: 4 h treatment, read-out: CDK1 Thr14 Phosphorylation EC50
T3 construct: pCDK1 Thr14 AlphaLISA read-out
T3 sequence (Q99640 1-499): T2 sequence (Q99640 1-499)
Description: Each of an ACHN renal cell carcinoma cell line (ATCC) and a DAOY medulloblastoma cell line, and an A427 lung cancer line were cultured in Minimum Essential Medium Eagle supplemented with 10% fetal calf serum (Sigma), 1% Penicillin-Streptomycin and 10 mM HEPES buffer (HyClone). Cell cultures were kept in a humidified incubator at 37 °C and 5% CO2. Cells were routinely tested for Mycoplasma contamination.
For target engagement assessment of Myt1 kinase inhibition, quantification of Cdk1 phosphorylated on threonine 14 was detected using the AlphaLISA® SureFire® Ultra™ Human Phospho-CDK1 (Thr14) assay (Perkin Elmer). DAOY or ACHN cells were seeded into tissue culture treated 96-well plates (VWR) to a density of 10,000 or 20,000 cells per well respectively. 24 h post seeding cells were treated for 4 h with compounds at concentrations ranging from 7 to 5000 nM. Cells were washed with PBS and lysed in 50 μl AlphaLISA lysis buffer before freezing at −80 C. Ten ul of the lysate was transferred to 384 well plates and incubated with AlphaLISA donor and acceptor beads according to the manufacturer's instructions. Dose response curves and EC50 values were calculated and visualized using GraphPad Prism version 9. Target engagement for Myt1 kinase can also be measured using the same AlphaLISA assay in OVCAR3 cells, an ovarian cancer cell line. NIH:OVCAR-3 (OVCAR3) cells are cultured in RPMI-1640 medium supplemented with 0.01 mg/ml insulin, 20% FBS, 1% Penicillin-Streptomycin and 10 mM HEPES buffer. 14,000 cells per well are seeded into 96 well tissue culture plates in full medium. Twenty-four hours post seeding, cells are treated with compound for 4 hours at concentrations ranging from 0.017 nM to 1000 nM.

[4] = target: T4, Wee1A kinase (CDK1 Tyr15 phosphorylation in ACHN renal cell carcinoma cells) (Homo sapiens, UniProt P30291); experiment: High-content imaging of pCdk1 Y15, Wee1A kinase target engagement in ACHN cells; type: cell-based
T4 construct: pCDK1 Tyr15 immunofluorescence read-out
T4 sequence (P30291 whole entry): as the sequence (P30291 whole entry) above
Procedure, shortened: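 ACHN cells exposed to compound for 4 h over 7–5,000 nM or 0.3–200 nM, then fixed and immunostained for pCDK1 Y15 with DAPI nuclear counterstain. The percentage of pCdk1 Y15 nucleus-positive cells relative to DMSO control was imaged per well; EC50 from dose-response curves.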

ACHN cells = experiment: Cell Titer Glo viability assay, ACHN cells; type: cell-based; conditions: Homo sapiens, 144 h, absolute EC50
Procedure, shortened: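 Cells grown in MEM with 10% FCS were seeded at 500 (A427), 400 (ACHN) or 250 (DAOY) per well and treated the next day with compound at 17 to 10 000 nM. Viability relative to untreated control was read at 144 h by CellTiter-Glo 2.0.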

[5] = 30 nM tracer 178, 5 nM Wee1A kinase, 2 nM Eu-labeled antibody, 60 minutes at room temperature, read-out: Wee1A kinase Binding IC50
[6] = 3 nM tracer 178, 2.5 nM PMYT-1, 1 nM Eu-labeled antibody, read-out: Myt1 kinase Binding IC50
[7] = 4 h treatment, nuclear positivity for pCdk1 Y15 vs DMSO control, read-out: CDK1 Tyr15 Phosphorylation EC50

Compound	IC50 [1, 5]	IC50 [2, 6]	EC50 [3]	EC50 [4, 7]	EC50 (ACHN cells)	IC50 [1]	IC50 ([2]; Myt1 kinase Binding IC50, 3 nM tracer 178, 2.5 nM PMYT-1, 1 nM Eu-labeled antibody)	EC50 ([4]; read-out: CDK1 Tyr15 Phosphorylation EC50, 4 h treatment, nuclear positivity for pCdk1 Y15 vs DMSO control)
C=CCn1c(=O)c2cnc(Nc3ccc4nccnc4c3)nc2n1-c1cccc(OC2CCN(C)CC2)n1 [Compound 241, 2-allyl-1-[6-(1-methyl-4-piperidyloxy)-2-pyridyl]-6-(6-quinoxalinylamino)-1,2-dihydro-3H-1,2,5,7-tetraazainden-3-one]	< 0.01 µM	< 0.02 µM	0.2 to 0.5 µM		≤ 0.1 µM			
C=CCn1c(=O)c2cnc(Nc3ccc4oc(C)nc4c3)nc2n1-c1cccc(OC2CCNCC2)n1 [Compound 232, 2-allyl-6-(2-methyl-1,3-benzoxazol-5-ylamino)-1-[6-(4-piperidyloxy)-2-pyridyl]-1,2-dihydro-3H-1,2,5,7-tetraazainden-3-one]	< 0.01 µM	< 0.02 µM	0.2 to 0.5 µM	< 0.1 µM				
C=CCn1c(=O)c2cnc(Nc3cnn(C)c3)nc2n1-c1cccc(OC2CC3CCCC(C2)N3C)n1 (stereo not drawn) [Compound 194, 2-allyl-1-{6-(9-methyl-9-azabicyclo[3.3.1]non-3-yloxy)-2-pyridyl}-6-(1-methyl-4-pyrazolylamino)-1,2-dihydro-3H-1,2,5,7-tetraazainden-3-one]	< 0.01 µM	< 0.02 µM	> 1 µM	0.1 to 0.5 µM				
C=CCn1c(=O)c2cnc(Nc3ccc(OCC(C)C)cc3)nc2n1-c1cccc(OC2CCNCC2)n1 [Compound 256, 2-allyl-6-((4-isobutoxyphenyl)amino)-1-(6-(piperidin-4-yloxy)pyridin-2-yl)-1,2-dihydro-3H-pyrazolo[3,4-d]pyrimidin-3-one]	< 0.01 µM	< 0.02 µM		< 0.1 µM	≤ 0.1 µM			
C=CCn1c(=O)c2cnc(Nc3cnn(C)c3)nc2n1-c1cccc(O[C@H]2CN3CCC2CC3)n1 [Compound 172, 1-{6-[(3R)-1-azabicyclo[2.2.2]octan-3-yloxy]pyridin-2-yl}-6-[(1-methyl-1H-pyrazol-4-yl)amino]-2-(prop-2-en-1-yl)-1H,2H,3H-pyrazolo[3,4-d]pyrimidin-3-one]					> 1 µM	< 0.01 µM	> 0.5 µM	> 1 µM
CCn1c(=O)c2cnc(Nc3ccc4c(c3)ncn4C)nc2n1-c1cccc(OC2CCN(C)CC2)n1 [Compound 235, 2-ethyl-6-((1-methyl-1H-benzo[d]imidazol-5-yl)amino)-1-(6-((1-methylpiperidin-4-yl)oxy)pyridin-2-yl)-1,2-dihydro-3H-pyrazolo[3,4-d]pyrimidin-3-one]	< 0.01 µM	0.02 to 0.1 µM		< 0.1 µM	≤ 0.1 µM			
C=CCn1c(=O)c2cnc(Nc3ccc4c(cnn4C(C)C)c3)nc2n1-c1cccc(OC2CCNCC2)n1 [Compound 265, 2-allyl-6-(1-isopropyl-1H-indazol-5-ylamino)-1-[6-(4-piperidyloxy)-2-pyridyl]-1,2-dihydro-3H-1,2,5,7-tetraazainden-3-one]	< 0.01 µM	< 0.02 µM	0.2 to 0.5 µM	< 0.1 µM				

Next, values leading:

IC50 [1, 5]	IC50 [2, 6]	EC50 [3]	EC50 [4, 7]	EC50 (ACHN cells)	IC50 [1]	IC50 ([2]; Myt1 kinase Binding IC50, 3 nM tracer 178, 2.5 nM PMYT-1, 1 nM Eu-labeled antibody)	EC50 ([4]; read-out: CDK1 Tyr15 Phosphorylation EC50, 4 h treatment, nuclear positivity for pCdk1 Y15 vs DMSO control)	Compound
< 0.01 µM	< 0.02 µM	> 1 µM	< 0.1 µM					C=CCn1c(=O)c2cnc(Nc3ccc(N4CCS(=O)(=O)CC4)cc3)nc2n1-c1cccc(OC2CCN(C)CC2)n1 [Compound 369, 4-(p-{2-allyl-1-[6-(1-methyl-4-piperidyloxy)-2-pyridyl]-3-oxo-1,2-dihydro-3H-1,2,5,7-tetraazainden-6-ylamino}phenyl)-1λ^6,4-thiazinane-1,1-dione]
< 0.01 µM	< 0.02 µM	> 1 µM	0.1 to 0.5 µM					C=CCn1c(=O)c2cnc(Nc3ccc4sncc4c3)nc2n1-c1cccc(OC2CCNCC2)n1 [Compound 228, 2-allyl-6-(1,2-benzisothiazol-5-ylamino)-1-[6-(4-piperidyloxy)-2-pyridyl]-1,2-dihydro-3H-1,2,5,7-tetraazainden-3-one]
< 0.01 µM	< 0.02 µM	> 1 µM	> 1 µM					C=CCn1c(=O)c2cnc(Nc3cccnc3)nc2n1-c1cccc(OC2CCNCC2)n1 [Compound 230, 2-allyl-1-[6-(4-piperidyloxy)-2-pyridyl]-6-(3-pyridylamino)-1,2-dihydro-3H-1,2,5,7-tetraazainden-3-one]
< 0.01 µM	< 0.02 µM	0.2 to 0.5 µM		≤ 0.1 µM				C=CCn1c(=O)c2cnc(Nc3ccc(N4CCSCC4)cc3)nc2n1-c1cccc(OC2CCN(C)CC2)n1 [Compound 261, 2-allyl-1-[6-(1-methyl-4-piperidyloxy)-2-pyridyl]-6-[p-(1,4-thiazinan-4-yl)phenylamino]-1,2-dihydro-3H-1,2,5,7-tetraazainden-3-one]
< 0.01 µM	0.02 to 0.1 µM	> 1 µM	0.5 to 1 µM					C=CCn1c(=O)c2cnc(Nc3ccc4cnoc4c3)nc2n1-c1cccc(OC2CCN(C)CC2)n1 [Compound 299, 2-allyl-6-(1,2-benzisoxazol-6-ylamino)-1-[6-(1-methyl-4-piperidyloxy)-2-pyridyl]-1,2-dihydro-3H-1,2,5,7-tetraazainden-3-one]
< 0.01 µM	0.02 to 0.1 µM		> 1 µM	> 1 µM				C=CCn1c(=O)c2cnc(Nc3ccc4c(cnn4C)c3)nc2n1-c1cccc(N[C@@H]2CCNC2)n1 [Compound 102, 1-{6-[(R)-3-pyrrolidinylamino]-2-pyridyl}-2-allyl-6-(1-methyl-1H-indazol-5-ylamino)-1,2-dihydro-3H-1,2,5,7-tetraazainden-3-one]
< 0.01 µM	0.1 to 0.5 µM		< 0.1 µM	≤ 0.1 µM				C=CCn1c(=O)c2cnc(Nc3cnn(CCC)c3)nc2n1-c1cccc(OC2CCN(C)CC2)n1 [Compound 180, 2-allyl-1-[6-(1-methyl-4-piperidyloxy)-2-pyridyl]-6-(1-propyl-4-pyrazolylamino)-1,2-dihydro-3H-1,2,5,7-tetraazainden-3-one]
< 0.01 µM	0.02 to 0.1 µM		< 0.1 µM	≤ 0.1 µM				[2H]C([2H])([2H])c1cccc(Nc2ncc3c(=O)n(CC=C)n(-c4cccc(OC5CCNCC5)n4)c3n2)c1 [Compound 334, 2-allyl-6-((3-(methyl-d3)phenyl)amino)-1-(6-(piperidin-4-yloxy)pyridin-2-yl)-1,2-dihydro-3H-pyrazolo[3,4-d]pyrimidin-3-one]
